{"source": "patent US10961233B2", "about": "(LIFEARC, priority 2016, dated 2021)", "key": {"WT full length PAICS": {"target": "WT full length PAICS (Homo sapiens (Human), UniProt P22234)", "sequence (P22234 whole entry)": "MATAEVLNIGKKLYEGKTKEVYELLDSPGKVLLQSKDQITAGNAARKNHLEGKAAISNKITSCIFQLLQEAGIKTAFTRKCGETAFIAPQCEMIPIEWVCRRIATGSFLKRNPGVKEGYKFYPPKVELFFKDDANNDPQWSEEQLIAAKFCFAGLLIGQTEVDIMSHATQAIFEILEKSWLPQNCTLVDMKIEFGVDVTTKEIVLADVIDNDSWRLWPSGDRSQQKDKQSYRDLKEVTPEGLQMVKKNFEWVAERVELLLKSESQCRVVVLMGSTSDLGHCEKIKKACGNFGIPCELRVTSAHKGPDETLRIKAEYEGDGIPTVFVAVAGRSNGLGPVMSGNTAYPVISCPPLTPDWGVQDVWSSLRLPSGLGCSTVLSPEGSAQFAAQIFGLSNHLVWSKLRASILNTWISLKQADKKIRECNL", "assay": "Biochemical assay to measure PAICS activity (Transcreener ADP2 FI)", "settings": "SAICAR synthetase reaction, ADP detection, 30 min pre-incubation", "from_the_text": "Biochemical Assay to Measure PAICS Activity\nThe biochemical assay was used to measure PAICS SAICAR synthetase-mediated conversion of CAIR, aspartic acid and ATP to SAICAR, ADP and inorganic phosphate (Pi), post-AIR/CAIR equilibration (see FIG. 3). This was achieved by detecting the ADP generated during the reaction, using Bellbrook Lab's Transcreener ADP^2 FI assay. An increase in the fluorescence intensity is directly proportional to the amount of PAICS activity.\nThe Transcreener ADP^2 FI assay is a homogeneous competitive displacement fluorescence intensity assay which uses direct immunodetection of ADP. Displacement of the tracer by ADP causes an increase in the fluorescence at excitation 590 nm and emission 617 nm (FIG. 3).\n5 μl WT full length PAICS (final assay concentration, fac, 2.5 nM) in basic buffer, added to black, non-binding, 384-well plates (Corning #3575), columns 1 to 22. 5 μl basic buffer was added to columns 23+24 (negative control). PAICS stock at 31.9 μM from the PI's lab (Steve Firestine). Basic buffer contained 50 mM Tris-HCl pH8 and 0.5 mM EDTA, fac.\n1 μl compound in 100% DMSO added per well, or 1 μl 100% DMSO to positive controls (columns 1+2) and negative controls (columns 23+24). Final assay top concentration of compound either 1 mM or 30-μM, serially diluted with half-log dilutions across the plate in duplicate (one 10-point concentration response curve across wells 3 to 12, another across 13 to 22). Compounds pre-incubated with PAICS enzyme for 30 mins at RT. 2 μl CAIR added (fac 10 μM) in basic buffer plus 25 mM MgCl2 and 50 mM KHCO3 fac to all wells. CAIR stock 50 mM from Steve Firestine's lab. 1 hr RT incubation for AIR-CAIR equilibration. NB: ˜50% CAIR is decarboxylated during equilibration therefore 5 μM remains for the synthetase reaction.\n2 μl ATP/aspartic acid added (fac 30 μM/180 μM) in reaction buffer to all wells. 30 mins RT incubation for appropriate level of ATP turnover. Reaction buffer contained basic buffer plus 10 mM DTT, 0.01% BSA and 0.01% Brij 35, fac.\n10 μl ADP detection reagent added to all wells (as per instructions, Transcreener ADP^2 FI kit, BellBrook Labs #3013-10K). Incubation for 1 h at RT to allow antibody equilibration. Fluorescence intensity determined using a Tecan Safire2 (excitation at 590 nm, emission at 617 nm)."}, "[1]": {"test_system": "LM2 and MDA-MB-231 breast cancer cell lines", "assay": "PAICS 2D cell proliferation assay (CellTiter-Glo viability, 72 h)", "assay_type": "cell-based", "settings": "Homo sapiens; 72 h incubation; cell line not given"}, "[2]": {"test_system": "wild type LM2 and CRISPR edited LM2", "assay": "2D cell proliferation assay, wild type LM2 versus PAICS CRISPR edited LM2", "assay_type": "cell-based, human", "settings": "LM2 cells, PAICS CRISPR edited vs wild type", "method": "Cas9 nuclease-mediated gene editing (Sander and Joung, 2014) was performed using a CRISPR RNA guide sequence ([…], PAM: AGG) targeting exon 3 in the human PAICS gene (accession number: NM_006452).\nStable cell clones were isolated and gene disruption confirmed by DNA sequencing and the absence of PAICS cellular protein expression confirmed by Western blotting.\nA small set of compounds were tested against wild type LM2 and CRISPR edited LM2 in the 2D cell proliferation assay to establish to what extent the cellular potency was driven by PAICS mediated effects. The data is shown in Table 2: compounds tested had no effect on CRISPR edited cells, confirming the on-targets effect as being PAICS mediated."}, "MDA-MB-231 Dlux cells": {"test_system": "MDA-MB-231 Dlux cells", "assay": "MDA-MB-231-Dlux xenograft model", "assay_type": "in vivo", "settings": "oral 25 mg/kg twice daily, 2 weeks, mammary fat pad implant, MF-1 nude mice", "method": "Evaluation of Compound 69 in MDA-MB-231-Dlux Xenograft Model\nMice were implanted with MDA-MB-231 Dlux cells in the mammary fat pad. Mice were treated with test agent, (Compound 69), standard of care control agent, docetaxel, or vehicle control, once tumours reached a mean volume of ˜100-200 mm^3. Tumours were measured every 2-3 days using electronic calipers and tumour volume estimated using the formula 0.5 (L×W^2). Treatment continued for 2 weeks. Mice were observed and body weight measured daily\nMF-1 (HsdOla:MF1-Foxn1^nu)\nMDA-MB-231 Dlux (Bioluminescent MDA-MD-231 variant)\nImplantation Site: Mammary fat pad (1:1 matrgel/PBS)\nCompound 69 (Oral 25 mg/kg twice daily)\nDocetaxel (IV 5 mg/kg twice weekly)"}}}
{"smiles": "CN(C)CCOC(=O)N1CCN(c2ccc(Br)c(NC(=O)c3coc(N)n3)c2)CC1", "note": "[Example 23, 2-(Dimethylamino)ethyl 4-(3-(2-aminooxazole-4-carboxamido)-4-bromophenyl)piperazine-1-carboxylate]", "values": [{"measurement": "IC50", "setting": "WT full length PAICS", "value": "10 to 25", "unit": "nM"}, {"measurement": "EC50", "setting": "[1]", "value": "100 to 250", "unit": "nM"}, {"measurement": "Potency shift: CRISPR Cell EC50/WT Cell EC50", "setting": "[2]", "value": ">500"}]}
{"smiles": "CN(C)CCCOC(=O)N1CCN(c2ccc(Br)c(NC(=O)c3coc(N)n3)c2)CC1", "note": "[Example 24, 3-(Dimethylamino)propyl 4-(3-(2-aminooxazole-4-carboxamido)-4-bromophenyl)piperazine-1-carboxylate]", "values": [{"measurement": "IC50", "setting": "WT full length PAICS", "value": "10 to 25", "unit": "nM"}, {"measurement": "EC50", "setting": "[1]", "value": "100 to 250", "unit": "nM"}, {"measurement": "Potency shift: CRISPR Cell EC50/WT Cell EC50", "setting": "[2]", "value": ">500"}]}
{"smiles": "CNCCS(=O)(=O)N1CCN(c2ccc(Br)c(NC(=O)c3coc(N)n3)c2)CC1", "note": "[Example 55, 2-Amino-N-[2-bromo-5-(4-{[2-(methylamino)ethyl]sulfonyl}piperazin-1-yl)phenyl]-1,3-oxazole-4-carboxamide]", "values": [{"measurement": "IC50", "setting": "WT full length PAICS", "value": "< 10", "unit": "nM"}, {"measurement": "EC50", "setting": "[1]", "value": "< 100", "unit": "nM"}, {"measurement": "Potency shift: CRISPR Cell EC50/WT Cell EC50", "setting": "[2]", "value": ">500"}]}
{"smiles": "CN(C)CCCS(=O)(=O)N1CCN(c2ccc(Br)c(NC(=O)c3coc(N)n3)c2)CC1", "note": "[Example 69, 2-Amino-N-(2-bromo-5-(4-(3-(dimethylamino)propylsulfonyl)piperazin-1-yl)phenyl)oxazole-4-carboxamide]", "values": [{"measurement": "IC50", "setting": "WT full length PAICS", "value": "< 10", "unit": "nM"}, {"measurement": "EC50", "setting": "[1]", "value": "< 100", "unit": "nM"}, {"measurement": "Potency shift: CRISPR Cell EC50/WT Cell EC50", "setting": "[2]", "value": ">500"}, {"measurement": "growth of primary tumour", "setting": "MDA-MB-231 Dlux cells", "value": "statistically significant reduction in growth of primary tumour"}]}
